This note sets out measurements from patent US20240000826A1, “METHODS FOR THE TREATMENT OF CARDIOVASCULAR DISEASE WITH CYCLODEXTRINS” (Beren Therapeutics P.B.C., priority 2020, published 2024).

For one test, the system named is ABCG1. The experiment in a line: ABCG1 mRNA level in treated subject. It is filed as in vivo. Conditions: one human subject; IV 500-1,000 mg/kg every 4 weeks as in Example 2; FIGS. 5A-5D.
A further test deals with 27-hydroxycholesterol. In words: plasma level of 27-hydroxycholesterol in treated subject. Conditions: one human subject; IV 500-1,000 mg/kg every 4 weeks as in Example 2; FIGS. 4A-4C. The test is classed as in vivo. The text has this: (§1) The increased production of 24S-hydroxycholesterol and 27-hydroxycholesterol enhance cholesterol metabolism, by acting as endogenous ligands for LXR transcription factors responsible for an anti-inflammatory gene signature.

Another test concerns total cholesterol. In words: total cholesterol level in treated subject. It is filed as in vivo. Conditions: one human subject; IV 500-1,000 mg/kg every 4 weeks as in Example 2; FIGS. 4A-4C.
From the text: as §1

Test [1] relates to cholesterol crystals. In words: CCDC of pre-dose blood plasma incubated ex vivo with 2-hydroxypropyl-beta-cyclodextrin. Also noted: species or system human. Conditions: pre-dose plasma treated ex vivo with 2-hydroxypropyl-beta-cyclodextrin; FIG. 3B.
Procedure: (§2) For each dose, whole blood was collected pre-dose, post-dose (line flush), 1 hour post-dose, and 24 hours post-dose. Plasma was separated from the whole blood and subjected to a cholesterol crystal dissolution capacity (CCDC) assay using techniques similar to those described in the literature. The CCDC assay measures the ability of a sample to dissolve cholesterol crystals.
For the next test, the system named is 24S-hydroxycholesterol. In words: plasma level of 24S-hydroxycholesterol in treated subject. The test is classed as in vivo. Conditions: one human subject; IV 500-1,000 mg/kg every 4 weeks as in Example 2; FIGS. 4A-4C.
From the text: as §1

A further test has as its system ABCA1. In words: ABCA1 mRNA level in treated subject. The settings on record: one human subject; IV 500-1,000 mg/kg every 4 weeks as in Example 2; FIGS. 5A-5D. It is filed as in vivo.
The subject of test [2] is cholesterol crystals. The experiment in a line: cholesterol crystal dissolution capacity (CCDC) assay of plasma from treated subject. The test is classed as in vivo. The settings on record: one human subject; single-ascending IV doses 500, 750, 1,000, 1,000 mg/kg every 4 weeks; plasma pre-dose, post-dose, 1 hour and 24 hours post-dose; FIG. 3A.
Procedure: as §2

Regarding 2-hydroxypropyl-beta-cyclodextrin, the “ABCG1 mRNA levels” value with ABCG1 is recorded as “increased mRNA levels”. For the same substance, the “plasma level of 27-hydroxycholesterol” value in the test with 27-hydroxycholesterol is recorded as “increased plasma levels”. In addition, in the test on total cholesterol, the total cholesterol levels entry is “remained stable”. Further, in the test on cholesterol crystals [1], the “capacity of plasma to dissolve cholesterol crystals” value was “increased capacity to dissolve cholesterol crystals”. In the test with 24S-hydroxycholesterol, the “plasma level of 24S-hydroxycholesterol” value is listed as “increased plasma levels”. The “ABCA1 mRNA levels” value with ABCA1 is given as “increased mRNA levels”. Besides, the “capability of blood plasma to dissolve cholesterol crystals (CCDC)” value with cholesterol crystals [2] is “increased capability of blood plasma to dissolve cholesterol crystals”.
